Measurements published in patent US7897636B2, “Sulfamide derivative useful for the treatment of epilepsy” (Janssen Pharmaceutica NV, priority 2007, dated 2011).

System: MES-induced seizure
Test: Maximal Electroshock Test (MES), anticonvulsant activity
Type: in vivo, CF-1 male albino mice
Method: Anticonvulsant activity was determined using the MES test, run according to the procedure described in detail below. Swinyard E A, Woodhead J H, White H S, Franklin M R. Experimental selection, quantification, and evaluation of anticonvulsants. In Levy R H, et al., eds. Antiepileptic Drugs. 3rd ed. New York: Raven Press, 1989:85-102 CF-1 male albino mice (25-35 g) were randomly selected into control and test groups, with the animals dosed with vehicle or test compound, at varying time-points and concentrations, respectively. On the study date, the mice were dosed by intraperitoneal (i.p.) injection with vehicle (30% Solutol) or test compound (50-250 mg/kg). Seizures were induced by trans-corneal electric shock using a 60-Hz alternating current, 50 mA, delivered for 0.2 sec. The mice in the test groups were subjected to electrical stimulus at time intervals between 15 minutes and 4 hours following administration of test compound. […] The test was complete when the entire course of the convulsion has been observed (typically, less than 1 minute after electrical stimulation). […] The ED50 value of the test compounds was the calculated dose required to block the hind limb tonic-extensor component of the MES-induced seizure in 50% of the rodents tested. […] Representative compounds of the present invention were tested according to the procedure described above, with results as listed in Table 1 below. Results are listed as (number of mice with full body tonic extension prevented)/(total number of mice tested) (@ a given time). ED50 values were determined at the time of peak effect (1 hr, Table 1).

[1] = 100 mg/kg i.p., 1.0 Hrs after dosing
[2] = 100 mg/kg i.p., 2 Hrs after dosing
[3] = 200 mg/kg i.p., 0.25 Hrs after dosing
[4] = 200 mg/kg i.p., 0.50 Hrs after dosing
[5] = 200 mg/kg i.p., 1.0 Hrs after dosing
[6] = 200 mg/kg i.p., 2 Hrs after dosing
[7] = 200 mg/kg i.p., 4 Hrs after dosing

Structure (SMILES) | MES Activity: (number of mice with full body tonic extension prevented)/(total number of mice tested) [1] | MES Activity: (number of mice with full body tonic extension prevented)/(total number of mice tested) [2] | MES Activity: (number of mice with full body tonic extension prevented)/(total number of mice tested) [3] | MES Activity: (number of mice with full body tonic extension prevented)/(total number of mice tested) [4] | MES Activity: (number of mice with full body tonic extension prevented)/(total number of mice tested) [5] | MES Activity: (number of mice with full body tonic extension prevented)/(total number of mice tested) [6] | MES Activity: (number of mice with full body tonic extension prevented)/(total number of mice tested) [7] | ED50 (Mus musculus, ip, 1 h, mice, i.p., at time of peak effect (1 hr), probit analysis, read-out: ED50 (dose required to block the hind limb tonic-extensor component of the MES-induced seizure in 50% of the rodents))
NS(=O)(=O)NCc1c[s+]([O-])c2ccccc12 (single isomer, unassigned; (+)) [(+)-enantiomer, N-[(1-oxidobenzo[b]thien-3-yl)methyl]-sulfamide] | 1/4 | 0/4 | 0/3 | 4/5 | 5/5 | 5/5 | 1/5 | 127 mg/kg
NS(=O)(=O)NCc1c[s+]([O-])c2ccccc12 (single isomer, unassigned; (-)) [(−)-enantiomer, N-[(1-oxidobenzo[b]thien-3-yl)methyl]-sulfamide] | 2/4 | 1/4 | 1/4 | 2/5 | 5/5 | 5/5 | 1/5 | 
